Measurements taken from BindingDB's records for doi:10.1021/acs.jmedchem.1c01426 (University of The Pacific, 2021).

Target: Transthyretin (Homo sapiens) (UniProt P02766)
Assay: Induction of stability of human recombinant interleukin 2 assessed as binding affinity of drug-conjugated rIL2 to human TTR in PBS buffer at pH 7.4 measured after 20 mins fluorescence polarization assay

Kd: 851 nM
Compound: Cc1n[nH]c(C)c1CCCOc1cc(OCCCc2cn(CCOCCOCCOCCOCCNC(=O)C3CCC(CN4C(=O)C=CC4=O)CC3)nn2)cc(C(=O)O)c1 (stereo unspecified)
